30 compounds from publication PMC11341970 (RSC Advances, 2024) can be followed below.

Each structure is given as a SMILES string. Read-outs that look alike come from different tables or passages of the source.

Assay [1] addresses EeAChE (Electrophorus electricus, UniProt O42275). Description: AChE inhibition assay. The format is biochemical. The conditions noted are these: for AChE inhibition (% of inhibition): concentration not given.
The target in assay [2] is hBACE 1 (Homo sapiens, UniProt P56817). Description: BACE 1 inhibition assay. The format is biochemical.
hBACE 1, sequence (P56817 46-501): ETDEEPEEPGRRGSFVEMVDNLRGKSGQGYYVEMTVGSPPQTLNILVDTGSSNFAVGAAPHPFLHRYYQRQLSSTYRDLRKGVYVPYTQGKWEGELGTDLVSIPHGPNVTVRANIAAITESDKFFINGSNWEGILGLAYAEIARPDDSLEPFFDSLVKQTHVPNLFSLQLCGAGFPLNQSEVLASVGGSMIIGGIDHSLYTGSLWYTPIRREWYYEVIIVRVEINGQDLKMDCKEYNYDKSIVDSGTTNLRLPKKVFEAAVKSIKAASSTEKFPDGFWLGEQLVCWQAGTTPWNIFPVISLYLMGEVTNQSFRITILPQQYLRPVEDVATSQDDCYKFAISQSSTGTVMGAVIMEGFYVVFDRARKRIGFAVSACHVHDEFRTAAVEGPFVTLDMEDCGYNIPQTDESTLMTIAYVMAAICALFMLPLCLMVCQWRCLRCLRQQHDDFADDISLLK
[3] abbreviates: read-out: eeAChE IC50 (μM) ± SD, Ellman assay, mean ± SD of three experiments.
Setting [4] is: read-out: hBACE 1 IC50 (μM) ± SD, FRET assay, mean ± SD of three experiments.

EeAChE, sequence (O42275 24-633): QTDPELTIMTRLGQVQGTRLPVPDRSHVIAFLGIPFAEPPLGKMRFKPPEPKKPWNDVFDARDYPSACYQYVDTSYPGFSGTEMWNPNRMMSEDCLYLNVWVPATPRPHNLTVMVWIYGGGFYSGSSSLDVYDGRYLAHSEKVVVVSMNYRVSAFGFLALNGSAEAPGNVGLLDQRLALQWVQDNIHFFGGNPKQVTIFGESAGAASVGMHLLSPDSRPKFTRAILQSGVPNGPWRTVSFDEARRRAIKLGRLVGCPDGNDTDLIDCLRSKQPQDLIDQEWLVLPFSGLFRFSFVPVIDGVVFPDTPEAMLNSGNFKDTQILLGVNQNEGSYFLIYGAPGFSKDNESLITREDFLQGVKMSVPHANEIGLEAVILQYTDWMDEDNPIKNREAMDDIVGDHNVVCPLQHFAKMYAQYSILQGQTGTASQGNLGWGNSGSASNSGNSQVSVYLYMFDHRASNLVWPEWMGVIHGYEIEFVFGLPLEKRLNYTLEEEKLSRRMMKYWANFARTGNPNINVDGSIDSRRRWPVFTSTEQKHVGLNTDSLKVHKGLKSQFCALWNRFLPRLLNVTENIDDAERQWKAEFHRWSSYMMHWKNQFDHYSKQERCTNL

Usually IC50 stands for the concentration needed to halve the response being measured. With `[H]/N=C(/N)NN=C(/C=C/c1ccccc1)c1cccn1Cc1ccccc1` [Compound 1a, (Z)-2-((E)-1-(1-Benzyl-1H-pyrrol-2-yl)-3-phenylallylidene)hydrazine-1-carboximidamide], the IC50 stood at 215.3 ± 0.14 µM in assay [1] and 169.9 ± 1.27 µM in assay [2].

In the case of `[H]/N=C(/N)NN=C(/C=C/c1ccccc1Cl)c1cccn1Cc1ccccc1` [Compound 1b, (Z)-2-((E)-1-(1-Benzyl-1H-pyrrol-2-yl)-3-(2-chlorophenyl)allylidene)hydrazine-1-carboximidamide], the IC50 in assay [1] came out at 174 ± 0.92 µM; in assay [2], 183.8 ± 0.92 µM.

With `[H]/N=C(/N)NN=C(/C=C/c1ccc([N+](=O)[O-])cc1)c1cccn1Cc1ccccc1` [Compound 1c, (Z)-2-((E)-1-(1-Benzyl-1H-pyrrol-2-yl)-3-(4-nitrophenyl)allylidene)hydrazine-1-carboximidamide], the IC50 was found to be 43.25 ± 0.41 µM in assay [1] and 194.3 ± 0.99 µM in assay [2]. Besides, in assay [1], the “AChE inhibition (% of inhibition)” value is reported as 38.07%.

With `[H]/N=C(/N)NN=C(/C=C/c1ccc(Cl)cc1Cl)c1cccn1Cc1ccccc1` [Compound 1d, (Z)-2-((E)-1-(1-Benzyl-1H-pyrrol-2-yl)-3-(2,4-dichlorophenyl)allylidene)hydrazine-1-carboximidamide], in assay [1], the IC50 is 55.4 ± 0.91 µM and the “AChE inhibition (% of inhibition)” value was 26.75%. Also, 207.9 ± 1.91 µM corresponded to half-maximal inhibition in assay [2] (IC50).

Regarding `[H]/N=C(/N)NN=C(/C=C/c1ccccc1F)c1cccn1Cc1ccccc1` [Compound 1e, (Z)-2-((E)-1-(1-Benzyl-1H-pyrrol-2-yl)-3-(2-fluorophenyl)allylidene)hydrazine-1-carboximidamide], the IC50 in assay [1] turned out to be 172.3 ± 1.56 µM; in assay [2], 174.5 ± 1.48 µM.

`[H]/N=C(/N)NN=C(/C=C/c1ccc(OC)cc1)c1cccn1Cc1ccccc1` [Compound 1f, (Z)-2-((E)-1-(1-Benzyl-1H-pyrrol-2-yl)-3-(4-methoxyphenyl)allylidene)hydrazine-1-carboximidamide]: the values for the IC50 in assay [1] and in assay [2] were 139.1 ± 0.35 µM and 173 ± 1.06 µM, respectively.

With `[H]/N=C(/N)NN=C(/C=C/c1ccc(OC)c(OC)c1)c1cccn1Cc1ccccc1` [Compound 1g, (Z)-2-((E)-1-(1-Benzyl-1H-pyrrol-2-yl)-3-(3,4-dimethoxyphenyl)allylidene)hydrazine-1-carboximidamide], the IC50 in assay [1] stood at 146 ± 2.4 µM; in assay [2], 114 ± 1.7 µM.

For `[H]/N=C(/N)NN=C(/C=C/c1ccc(C(C)C)cc1)c1cccn1Cc1ccccc1` [Compound 1h, (Z)-2-((E)-1-(1-Benzyl-1H-pyrrol-2-yl)-3-(4-isopropylphenyl)allylidene)hydrazine-1-carboximidamide], the IC50 in assay [1] was 203.8 ± 1.7 µM; in assay [2] it was 108 ± 1.2 µM.

As for `[H]/N=C(/N)NN=C(/C=C/c1cccc(OC)c1)c1cccn1Cc1ccccc1` [Compound 1i, (Z)-2-((E)-1-(1-Benzyl-1H-pyrrol-2-yl)-3-(3-methoxyphenyl)allylidene)hydrazine-1-carboximidamide], the IC50 in assay [1] turned out to be 206.6 ± 0.49 µM; in assay [2], 134.1 ± 0.21 µM.

Turning to `[H]/N=C(/N)NN=C(/C=C/c1ccccn1)c1cccn1Cc1ccccc1` [Compound 1j, (Z)-2-((E)-1-(1-Benzyl-1H-pyrrol-2-yl)-3-(pyridin-2-yl)allylidene)hydrazine-1-carboximidamide], the results for the IC50 in assay [1] and in assay [2] were 95.6 ± 2.4 µM and 13.7 ± 0.77 µM, respectively. Also, the “BACE 1 inhibition (%)” value in assay [2] (concentration not given) amounted to 43.62%.

For `[H]/N=C(/N)NN=C(/C=C/c1ccccc1)c1cccn1Cc1cc(OC)cc(OC)c1` [Compound 2a, (Z)-2-((E)-1-(1-(3,5-Dimethoxybenzyl)-1H-pyrrol-2-yl)-3-phenylallylidene)hydrazine-1-carboximidamide], the figures for the IC50 in assay [1] and in assay [2] were 231.2 ± 2.26 µM and 95.8 ± 3.45 µM, respectively.

In the case of `[H]/N=C(/N)NN=C(/C=C/c1ccccc1)c1cccn1Cc1ccc(OC(F)(F)F)cc1` [Compound 2b, (Z)-2-((E)-3-Phenyl-1-(1-(4-(trifluoromethoxy)benzyl)-1H-pyrrol-2-yl)allylidene)hydrazine-1-carboximidamide], the IC50 in assay [1] (setting [3]) was found to be 231.7 ± 1.27 µM; in assay [2] (setting [4]), 86.19 ± 0.38 µM.

For the compound `[H]/N=C(/N)NN=C(/C=C/c1ccccc1)c1cccn1Cc1ccc(OC(F)F)cc1` [Compound 2c, (Z)-2-((E)-1-(1-(4-(Difluoromethoxy)benzyl)-1H-pyrrol-2-yl)-3-phenylallylidene)hydrazine-1-carboximidamide], the values for the IC50 in assay [1] (setting [3]) and in assay [2] (setting [4]) were 195.8 ± 0.99 µM and 15.4 ± 0.24 µM, respectively.

For the compound `[H]/N=C(/N)NN=C(/C=C/c1ccccc1)c1cccn1Cc1cc(F)ccc1F` [Compound 2d, (Z)-2-((E)-1-(1-(2,5-Difluorobenzyl)-1H-pyrrol-2-yl)-3-phenylallylidene)hydrazine-1-carboximidamide], the IC50 amounted to 153 ± 1.98 µM in assay [1] (setting [3]) and 107 ± 3.04 µM in assay [2] (setting [4]).

For the compound `[H]/N=C(/N)NN=C(/C=C/c1ccccc1)c1cccn1Cc1cc(Cl)ccc1Cl` [Compound 2e, (Z)-2-((E)-1-(1-(2,5-Dichlorobenzyl)-1H-pyrrol-2-yl)-3-phenylallylidene)hydrazine-1-carboximidamide], the IC50 in assay [1] came to 75.6 ± 3.09 µM; in assay [2] it was 178.2 ± 0.92 µM.

On to `[H]/N=C(/N)NN=C(/C=C/c1ccccc1)c1cccn1Cc1ccc(C)cc1` [Compound 2f, (Z)-2-((E)-1-(1-(4-Methylbenzyl)-1H-pyrrol-2-yl)-3-phenylallylidene)hydrazine-1-carboximidamide], for which the IC50 in assay [1] is 176.7 ± 0.64 µM; in assay [2], 85.7 ± 2.43 µM.

As to `[H]/N=C(/N)NN=C(/C=C/c1ccccc1)c1cccn1Cc1ccccc1F` [Compound 2g, (Z)-2-((E)-1-(1-(2-Fluorobenzyl)-1H-pyrrol-2-yl)-3-phenylallylidene)hydrazine-1-carboximidamide], the IC50 turned out to be 163 ± 3.18 µM in assay [1] and 100.8 ± 0.57 µM in assay [2].

Consider `[H]/N=C(/N)NN=C(/C=C/c1ccccc1)c1cccn1Cc1ccc(F)cc1C(F)(F)F` [Compound 2h, (Z)-2-((E)-1-(1-(4-Fluoro-2-(trifluoromethyl)benzyl)-1H-pyrrol-2-yl)-3-phenylallylidene)hydrazine-1-carboximidamide], for which the IC50 is 57.1 ± 3.91 µM in assay [1] and 74.2 ± 1.8 µM in assay [2].

On to `[H]/N=C(/N)NN=C(/C=C/c1ccccc1)c1cccn1Cc1cc(C(F)(F)F)cc(C(F)(F)F)c1` [Compound 2i, (Z)-2-((E)-1-(1-(3,5-Bis(trifluoromethyl)benzyl)-1H-pyrrol-2-yl)-3-phenylallylidene)hydrazine-1-carboximidamide], for which the IC50 in assay [1] is 77.56 ± 0.66 µM; in assay [2] it was 139.1 ± 1.13 µM.

With `[H]/N=C(/N)NN=C(/C=C/c1ccccc1)c1cccn1Cc1ccc(CCCC)cc1` [Compound 2j, (Z)-2-((E)-1-(1-(4-Butylbenzyl)-1H-pyrrol-2-yl)-3-phenylallylidene)hydrazine-1-carboximidamide], the IC50 in assay [1] turned out to be 55.4 ± 4.19 µM; in assay [2] it was 132.7 ± 1.22 µM.

In the case of `[H]/N=C(/N)NN=C(/C=C/c1ccccc1)c1cccn1Cc1ccc(F)cc1F` [Compound 2k, (Z)-2-((E)-1-(1-(2,4-Difluorobenzyl)-1H-pyrrol-2-yl)-3-phenylallylidene)hydrazine-1-carboximidamide], the IC50 in assay [1] is 61.1 ± 1.48 µM; in assay [2], 133 ± 1.84 µM.

For the compound `[H]/N=C(/N)NN=C(/C=C/c1ccccc1)c1cccn1Cc1ccc([N+](=O)[O-])cc1` [Compound 2l, (Z)-2-((E)-1-(1-(4-Nitrobenzyl)-1H-pyrrol-2-yl)-3-phenylallylidene)hydrazine-1-carboximidamide], the IC50 came to 43.6 ± 0.66 µM in assay [1] and 193.35 ± 0.07 µM in assay [2].

On to `[H]/N=C(/N)NN=C(/C=C/c1ccccc1)c1cccn1Cc1cccc(Br)c1` [Compound 2m, (Z)-2-((E)-1-(1-(3-Bromobenzyl)-1H-pyrrol-2-yl)-3-phenylallylidene)hydrazine-1-carboximidamide], for which the IC50 turned out to be 51.14 ± 0.22 µM in assay [1] and 134 ± 3.11 µM in assay [2].

For `[H]/N=C(/N)NN=C(/C=C/c1ccccc1)c1cccn1Cc1cccc(C#N)c1` [Compound 2o, (Z)-2-((E)-1-(1-(3-Cyanobenzyl)-1H-pyrrol-2-yl)-3-phenylallylidene)hydrazine-1-carboximidamide], the IC50 turned out to be 75.4 ± 1.03 µM in assay [1] and 147.8 ± 0.28 µM in assay [2].

`[H]/N=C(/N)NN=C(/C=C/c1ccccc1)c1cccn1Cc1cc(F)ccc1C` [Compound 2p, (Z)-2-((E)-1-(1-(5-Fluoro-2-methylbenzyl)-1H-pyrrol-2-yl)-3-phenylallylidene)hydrazine-1-carboximidamide]: the IC50 amounted to 80.13 ± 0.16 µM in assay [1] and 145 ± 0.28 µM in assay [2].

As to `[H]/N=C(/N)NN=C(/C=C/c1ccccc1)c1cccn1Cc1ccc(C(C)(C)C)cc1` [Compound 2q, (Z)-2-((E)-1-(1-(4-(tert-Butyl)benzyl)-1H-pyrrol-2-yl)-3-phenylallylidene)hydrazine-1-carboximidamide], the IC50 in assay [1] was 48.52 ± 0.23 µM; in assay [2] it was 167.5 ± 0.71 µM.

Regarding `[H]/N=C(/N)NN=C(/C=C/c1ccccc1)c1cccn1Cc1ccc(C(C)C)cc1` [Compound 2r, (Z)-2-((E)-1-(1-(4-Isopropylbenzyl)-1H-pyrrol-2-yl)-3-phenylallylidene)hydrazine-1-carboximidamide], the half-maximal inhibitory concentration (IC50) in assay [1] was found to be 50.4 ± 0.91 µM; in assay [2], 191.3 ± 1.41 µM.

Consider `[H]/N=C(/N)NN=C(/C=C/c1ccc(F)cc1)c1cccn1Cc1ccc(Br)cc1` [Compound 3a, (Z)-2-((E)-1-(1-(4-Bromobenzyl)-1H-pyrrol-2-yl)-3-(4-fluorophenyl)allylidene)hydrazine-1-carboximidamide], for which the IC50 in assay [1] (setting [3]) turned out to be 86.09 ± 0.33 µM; in assay [2] (setting [4]), 165.7 ± 1.34 µM.

`[H]/N=C(/N)NN=C(/C=C/c1ccc(C(F)(F)F)cc1)c1cccn1Cc1ccc(CCCC)cc1` [Compound 3b, (Z)-2-((E)-1-(1-(4-Butylbenzyl)-1H-pyrrol-2-yl)-3-(4-(trifluoromethyl)phenyl)allylidene)hydrazine-1-carboximidamide]: the IC50 in assay [1] (setting [3]) is 57.4 ± 1.12 µM; in assay [2] (setting [4]), 204.6 ± 0.42 µM.

Consider `[H]/N=C(/N)NN=C(/C=C/c1ccc(OC)c(OC)c1)c1cccn1Cc1ccc(F)cc1C(F)(F)F` [Compound 3c, (Z)-2-((E)-3-(3,4-Dimethoxyphenyl)-1-(1-(4-fluoro-2-(trifluoromethyl)benzyl)-1H-pyrrol-2-yl)allylidene)hydrazine-1-carboximidamide], for which the IC50 in assay [1] (setting [3]) was determined as 58.19 ± 0.44 µM; in assay [2] (setting [4]), 204 ± 2.33 µM.
